Assay results published in publication PMC8151276, “An Integrated Approach toward NanoBRET Tracers for Analysis of GPCR Ligand Engagement” (Molecules, 2021).

How the values were obtained:
Assay type in all cases: binding
[1] = molecular target: T1, P2RY11 (Homo sapiens, UniProt Q96G91); test: NanoBRET screen HiBiT-P2RY11 in HEK293
T1 construct: purchased Promega (in-house HiBiT-GPCR construct library, NanoBRET)
T1 sequence (Q96G91 1-374): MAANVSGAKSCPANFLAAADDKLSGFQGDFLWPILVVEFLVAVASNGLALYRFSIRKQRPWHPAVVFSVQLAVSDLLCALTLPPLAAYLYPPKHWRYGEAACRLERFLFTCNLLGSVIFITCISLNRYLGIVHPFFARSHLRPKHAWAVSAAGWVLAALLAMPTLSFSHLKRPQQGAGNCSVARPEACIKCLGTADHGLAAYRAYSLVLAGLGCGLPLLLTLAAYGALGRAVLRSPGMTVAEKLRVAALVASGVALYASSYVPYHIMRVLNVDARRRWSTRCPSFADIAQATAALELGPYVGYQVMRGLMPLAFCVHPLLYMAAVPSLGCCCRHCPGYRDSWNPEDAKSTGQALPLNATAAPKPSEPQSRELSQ
Experimental: (§1) Each tracer candidate was screened across the entire library of HiBiT-GPCR constructs using NanoBRET as the detection modality. As depicted in Figure 4A, the specificity of interactions was evaluated through decrease in BRET due to competitive displacement of a bound tracer by excess parental compound. Each tracer was analyzed for binding to each HiBiT-GPCR fusion in the absence and in the presence of competing parental compound. Briefly, HEK293 cells were transfected with HiBiT-GPCR constructs diluted into promoterless DNA to reduce expression and maximize translocation to the cell surface. Each tracer candidate was then screened at concentrations of 1 μM and 0.1 μM across cells expressing these fusions. Cells were treated for 1.5 h with tracer either alone or in the presence of 20 μM competing parental compound (i.e., control). BRET was measured upon addition of purified LgBiT and subsequent complementation with HiBiT genetically fused to a GPCR. The specificity of interactions was assessed through a decrease in BRET signal due to competitive displacement of the bound tracer. To further gauge the robustness of these interactions, the fold response over the control (i.e., BRETtracer/BRETcontrol) was calculated. We chose a 1.5-fold response, which translates to ≥7-fold signal over noise as the minimal threshold required to score an interaction as positive. […]. Below we highlight the screening results obtained for our exemplary fluorescent tracers based on Clozapine, Amitriptyline and AZD1283.
(§2) HiBiT-GPCR DNA constructs were diluted in 10 mM Tris pH 8 to a final concentration of 0.01 μg/μL, arrayed in 96-well plates and stored at −20 °C. For transfection, HEK293 cells were suspended in Opti-MEM (without phenol red) supplemented with 2% fetal bovine serum (Seradigm) and 100 units/mL penicillin–streptomycin (Gibco) at a final concentration of 220,000 cells/mL and dispensed into white 96-well plates at 90 μL/well. Subsequent transfections and screens were carried using an Agilent Bravo Automated Liquid Handling Platform. First, the 96-well HiBiT DNA arrays were diluted 25-fold in Opti-MEM (without serum or phenol red) to a final concentration of 0.0004 μg/μL and 20 μL of the diluted DNAs were transferred into new 96-well plates. Next, promoterless carrier DNA (1 μg/μL) was diluted 25-fold (0.04 μg/μL) and then dispensed into the diluted arrays at 20 μL/well. Following brief mixing, Viafect transfection reagent (Promega) diluted 16-fold into Opti-MEM was dispensed into the plates at 40 μL/well. After mixing by pipetting, plates were incubated for 10 min on the pipetting station deck. The DNA-transfection reagent complexes were then added to plates containing cells. To facilitate the screen, 10 μL of DNA-transfection reagent complexes were added in duplicates to the top 4 and bottom 4 rows, resulting in two identical 48-well arrays per plate. Plates with transfected cells were incubated for 18–20 h at 37 °C/5% CO2. A screen of each tracer across the entire library using two different concentrations requires duplicate plates of transfected cells. Depending on the number of tracers being screened, transfections can be scaled up using the same ratios. The next day, for each tracer, four 20× screening solutions in tracer dilution buffer (Promega) were prepared: two duplicates at final concentration of 20 μM and two duplicates at a final concentration of 2 μM. A competing unmodified compound was added to one of each duplicate at a final concentration of 400 μM. The four resulting solutions were diluted 4-fold in Opti-MEM without serum or phenol red to generate 5× solutions (5 µM and 0.5 µM tracer +/− 100 μM competing compound). To screen the library, a BioTek MultiFlo FX liquid dispenser was used to dispense 22.5 µL of tracer solution to the top 4 rows and 22.5 µL tracer + competing compound solution to the 4 bottom rows. Plates were briefly mixed on an orbital shaker and incubated for 1.5 h at room temperature. […]

[2] = molecular target: T2, PTGDR (Homo sapiens, UniProt Q13258); test: NanoBRET screen HiBiT-PTGDR in HEK293
T2 construct: purchased Promega (in-house HiBiT-GPCR construct library, NanoBRET)
T2 sequence (Q13258 1-359): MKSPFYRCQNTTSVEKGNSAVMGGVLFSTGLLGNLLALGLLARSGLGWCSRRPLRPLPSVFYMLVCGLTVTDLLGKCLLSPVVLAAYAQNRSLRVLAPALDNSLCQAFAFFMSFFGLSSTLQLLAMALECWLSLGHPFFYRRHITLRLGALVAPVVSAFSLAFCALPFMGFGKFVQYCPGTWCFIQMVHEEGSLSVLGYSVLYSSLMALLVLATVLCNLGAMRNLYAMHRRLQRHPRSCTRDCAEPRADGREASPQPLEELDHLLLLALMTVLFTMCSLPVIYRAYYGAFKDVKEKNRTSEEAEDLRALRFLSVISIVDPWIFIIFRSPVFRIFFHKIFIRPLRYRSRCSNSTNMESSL
Experimental: as §1, §2

[3] = molecular target: T3, SSTR5 (Homo sapiens, UniProt P35346); test: NanoBRET screen HiBiT-SSTR5 in HEK293
T3 construct: purchased Promega (in-house HiBiT-GPCR construct library, NanoBRET)
Experimental: as §1, §2

[4] = molecular target: T4, CCR3 (Homo sapiens, UniProt P51677); test: NanoBRET screen HiBiT-CCR3 in HEK293
T4 construct: purchased Promega (in-house HiBiT-GPCR construct library, NanoBRET)
T4 sequence (P51677 1-355): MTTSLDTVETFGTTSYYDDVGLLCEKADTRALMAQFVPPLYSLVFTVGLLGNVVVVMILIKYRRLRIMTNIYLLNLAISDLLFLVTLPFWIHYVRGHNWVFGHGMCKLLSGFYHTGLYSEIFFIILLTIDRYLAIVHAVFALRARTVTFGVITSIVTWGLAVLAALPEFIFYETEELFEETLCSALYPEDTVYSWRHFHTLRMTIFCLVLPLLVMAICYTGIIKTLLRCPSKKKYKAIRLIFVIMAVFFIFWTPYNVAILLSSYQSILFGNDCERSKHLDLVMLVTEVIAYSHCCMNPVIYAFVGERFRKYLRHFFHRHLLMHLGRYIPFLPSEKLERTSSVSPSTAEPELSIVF
Experimental: as §1, §2

[5] = molecular target: T5, GRM2 (Homo sapiens, UniProt Q14416); test: NanoBRET screen HiBiT-GRM2 in HEK293; settings: GRM2
T5 construct: purchased Promega (in-house HiBiT-GPCR construct library, NanoBRET)
Experimental: as §1, §2

[6] = molecular target: T6, MC3R (Homo sapiens, UniProt P41968); test: NanoBRET screen HiBiT-MC3R in HEK293
T6 construct: purchased Promega (in-house HiBiT-GPCR construct library, NanoBRET)
Experimental: as §1, §2

[7] = tracer at 0.1μM, listed as amitriptyline-b-2-NB590
[8] = tracer at 1μM, listed as amitriptyline-b-2-NB590

T6 sequence (P41968 whole entry): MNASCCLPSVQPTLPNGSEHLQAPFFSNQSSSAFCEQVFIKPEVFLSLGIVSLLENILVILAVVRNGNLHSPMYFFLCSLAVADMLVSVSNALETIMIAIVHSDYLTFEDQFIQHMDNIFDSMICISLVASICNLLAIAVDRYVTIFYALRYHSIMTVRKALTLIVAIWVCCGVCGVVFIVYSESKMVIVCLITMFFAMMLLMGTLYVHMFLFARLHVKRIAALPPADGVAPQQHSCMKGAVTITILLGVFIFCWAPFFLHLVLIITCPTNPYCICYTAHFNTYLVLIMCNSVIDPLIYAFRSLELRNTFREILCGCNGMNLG
T5 sequence (Q14416 19-872): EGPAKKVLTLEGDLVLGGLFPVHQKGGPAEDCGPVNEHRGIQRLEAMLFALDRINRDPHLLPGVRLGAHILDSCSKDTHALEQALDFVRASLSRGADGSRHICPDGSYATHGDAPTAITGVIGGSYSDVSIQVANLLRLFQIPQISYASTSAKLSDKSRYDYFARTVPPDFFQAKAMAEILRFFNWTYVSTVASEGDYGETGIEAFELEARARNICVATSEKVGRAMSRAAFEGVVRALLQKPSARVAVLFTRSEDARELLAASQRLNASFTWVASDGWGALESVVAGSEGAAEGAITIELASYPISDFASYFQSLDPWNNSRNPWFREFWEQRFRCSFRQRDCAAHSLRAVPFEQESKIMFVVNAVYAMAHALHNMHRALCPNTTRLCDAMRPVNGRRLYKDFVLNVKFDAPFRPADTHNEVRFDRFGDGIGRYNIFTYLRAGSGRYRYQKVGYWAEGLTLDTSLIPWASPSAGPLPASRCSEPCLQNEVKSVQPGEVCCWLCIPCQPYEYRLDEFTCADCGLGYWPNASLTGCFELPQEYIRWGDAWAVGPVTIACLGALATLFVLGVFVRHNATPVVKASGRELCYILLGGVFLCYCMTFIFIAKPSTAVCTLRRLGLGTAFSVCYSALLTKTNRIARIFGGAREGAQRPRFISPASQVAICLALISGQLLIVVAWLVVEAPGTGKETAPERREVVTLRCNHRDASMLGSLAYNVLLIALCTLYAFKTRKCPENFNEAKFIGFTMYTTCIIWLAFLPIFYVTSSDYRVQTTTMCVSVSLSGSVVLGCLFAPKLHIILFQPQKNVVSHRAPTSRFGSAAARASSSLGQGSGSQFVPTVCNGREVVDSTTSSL
T3 sequence (P35346 whole entry): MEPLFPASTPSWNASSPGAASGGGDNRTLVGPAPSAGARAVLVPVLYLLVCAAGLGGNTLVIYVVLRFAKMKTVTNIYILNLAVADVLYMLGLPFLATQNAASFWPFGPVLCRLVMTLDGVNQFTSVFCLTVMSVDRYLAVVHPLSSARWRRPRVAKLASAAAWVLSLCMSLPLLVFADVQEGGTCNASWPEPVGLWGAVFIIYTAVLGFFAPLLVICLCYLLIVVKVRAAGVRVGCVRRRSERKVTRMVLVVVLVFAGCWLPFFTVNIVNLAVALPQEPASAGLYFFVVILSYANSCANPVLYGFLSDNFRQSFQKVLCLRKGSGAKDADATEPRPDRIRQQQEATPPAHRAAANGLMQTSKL

CN1CCN(C2=Nc3cc(Cl)ccc3Nc3ccc(CNC(=O)CCOCCOCCOCCOCCNC(=O)CCc4ccc5n4[B-](F)(F)[N+]4=C(c6ccc[nH]6)C=CC4=C5)cc32)CC1 [Clozapine-b-2-NB590]
NanoBRET Fold Response ([1]; P2RY11, 0.1μM tracer): 1.04
NanoBRET Fold Response ([1]; P2RY11, 1μM tracer): 0.98
NanoBRET Fold Response ([2]; PTGDR, 0.1μM tracer): 1.10
NanoBRET Fold Response ([2]; PTGDR, 1μM tracer): 1.01
NanoBRET Fold Response ([3]; SSTR5, 0.1μM tracer): 1.03
NanoBRET Fold Response ([3]; SSTR5, 1μM tracer): 1.00
NanoBRET Fold Response ([4]; CCR3, 0.1μM tracer): 0.98
NanoBRET Fold Response ([4]; CCR3, 1μM tracer): 1.00
NanoBRET Fold Response ([5]; 0.1μM tracer): 1.01
NanoBRET Fold Response ([5]; 1μM tracer): 1.04
NanoBRET Fold Response ([6]; MC3R, 0.1μM tracer): 1.05
NanoBRET Fold Response ([6]; MC3R, 1μM tracer): 0.94

CN(C)CCC=C1c2ccccc2CCc2ccc(C(=O)NCCNC(=O)CCOCCOCCOCCOCCNC(=O)CCc3ccc4n3[B-](F)(F)[N+]3=C(c5ccc[nH]5)C=CC3=C4)cc21 [Amitriptyline-b-2-NB590]
NanoBRET Fold Response [1, 7]: 0.88
NanoBRET Fold Response [1, 8]: 0.96
NanoBRET Fold Response ([2]; tracer at 1μM): 1.03
NanoBRET Fold Response [3, 7]: 0.96
NanoBRET Fold Response ([3]; tracer at 1μM): 0.97
NanoBRET Fold Response ([4]; tracer at 0.1μM): 0.90
NanoBRET Fold Response [4, 8]: 1.27
NanoBRET Fold Response ([5]; tracer 0.1μM): 0.97
NanoBRET Fold Response ([5]; tracer 1μM): 0.98
NanoBRET Fold Response ([6]; tracer at 0.1μM): 0.98
NanoBRET Fold Response ([6]; tracer at 1μM): 0.98

CCOC(=O)c1cc(C#N)c(N2CCC(C(=O)NS(=O)(=O)Cc3ccccc3/C=C/C(=O)NCCNC(=O)CCc3ccc4n3[B-](F)(F)[N+]3=C(c5ccc[nH]5)C=CC3=C4)CC2)nc1C [AZD1283-1-NB590]
NanoBRET Fold Response ([1]; P2RY11, 0.1μM): 1.09
NanoBRET Fold Response ([1]; P2RY11, 1μM): 1.04
NanoBRET Fold Response ([2]; PTGDR, 0.1μM): 1.42
NanoBRET Fold Response ([2]; PTGDR, 1μM): 1.19
NanoBRET Fold Response ([3]; SSTR5, 0.1μM): 1.09
NanoBRET Fold Response ([3]; SSTR5, 1μM): 1.05
NanoBRET Fold Response ([4]; CCR3, 0.1μM): 0.96
NanoBRET Fold Response ([4]; CCR3, 1μM): 1.02
NanoBRET Fold Response ([5]; 0.1μM): 1.00
NanoBRET Fold Response ([5]; 1μM): 0.43
NanoBRET Fold Response ([6]; MC3R, 0.1μM): 1.00
NanoBRET Fold Response ([6]; MC3R, 1μM): 0.98

CC(C)N(CC[C@H](c1ccccc1)c1cc(CCNC(=O)CCOCCOCCOCCOCCNC(=O)CCc2ccc3n2[B-](F)(F)[N+]2=C(c4ccc[nH]4)C=CC2=C3)ccc1O)C(C)C [Tolterodine-2-NB590]
NanoBRET Fold Response ([1]; P2RY11, tracer 0.1μM): 1.31
NanoBRET Fold Response ([1]; P2RY11, tracer 1μM): 0.83
NanoBRET Fold Response ([2]; PTGDR, tracer 0.1μM): 1.16
NanoBRET Fold Response ([2]; PTGDR, tracer 1μM): 0.96
NanoBRET Fold Response ([3]; SSTR5, tracer 0.1μM): 0.93
NanoBRET Fold Response ([3]; SSTR5, tracer 1μM): 1.04
NanoBRET Fold Response ([4]; CCR3, tracer 0.1μM): 1.63
NanoBRET Fold Response ([4]; CCR3, tracer 1μM): 1.01
NanoBRET Fold Response ([5]; tracer 0.1μM): 0.99
NanoBRET Fold Response ([5]; tracer 1μM): 0.97
NanoBRET Fold Response ([6]; MC3R, tracer 0.1μM): 0.82
NanoBRET Fold Response ([6]; MC3R, tracer 1μM): 1.04
